The source of these data is US10273272B2, “Antimicrobial peptides” (Amprologix Limited, priority 2014, dated 2019).

One data set deals with S. Hominis. Type of data set: cell-based. Here is the method:
(§1) Experiments were conducted in which the full-length epidermicin peptide (51 amino acids, SEQ ID NO:10) was truncated to yield the derivatives shown in FIG. 1 (SEQ ID NOs:11 to 19). NI011-37 (SEQ ID NO:11) Is the region most similar to other peptides in the public domain, NI0138-51 (SEQ ID NO:12) is the region that is most unique with respect to other peptides in the public domain. All other truncations have been carried out by removing residues from the amino-terminal end of the peptide to each lysine residue (K). Lysine is important in antimicrobial peptides as it contributes to the net positive charge, which is thought to have a key role in the mode of action of ‘cationic’ peptides, like NI01 (SEQ ID NO:10).

Data set [1] has as its system Vanc. resistant Enterococcus. The class given is cell-based. As for the experimental part:
as §1

The subject of another data set is S. saprophyticus. The class given is cell-based. As for the experimental part:
as §1

A further data set deals with S. aureus 1195. Type of data set: cell-based. Here is the method:
as §1

Data set [2] deals with MRSA. Type of data set: cell-based, Staphylococcus aureus. Here is the method: as §1
For a further data set, the system named is S. epidermidis. Type of data set: cell-based. Here is the method: as §1
The test system of the next data set is Gram-negative bacteria. Type of data set: cell-based. The conditions noted are these: previous data, not presented. Here is the method:
It was a most surprising finding that the truncated and modified novel peptides of the present invention based on the epidermicin peptide were effective against Gram negative bacteria.
(§2) A series of derivatives of the NI0138-51 (SEQ ID NO:12) truncation were carried out with a view to maintaining stability of the helix and/or increasing net positive charge of the peptides (Table 3). Minimum inhibitory concentrations (MICs) were determined for each derivative against a range of Gram positive and Gram negative organisms by a modified 2-fold microtitre broth dilution method (Wu and Hancock, J Biol Chem 1999; 274: 29-35) (Table 2). […] This could not have been predicted.

The test system of data set [3] is Gram positive and negative bacteria. Kind of data set: Antimicrobial activity against drug-resistant pathogens, summary in words. The conditions noted are these: summary of Table 2. Type of data set: cell-based. As for the experimental part:
as §2

The next data set concerns P. aeruginosa. Type of data set: cell-based. Here is the method:
as §2

Another data set deals with N. lactamica. The class given is cell-based. As for the experimental part: as §2
For a further data set, the system named is E. coli. The class given is cell-based. To be noted: for Average MIC: average of triplicate experiments, Table 5. Here is the method:
as §2

The next data set has as its system S aureus 1195. The class given is cell-based. As for the experimental part:
as §2

For data set [4], the system named is MRSA. Type of data set: cell-based, Staphylococcus aureus. As for the experimental part: as §2
This is another data set of the same source.

Data set [5] relates to Klebsiella (K. pneumoniae). The class given is cell-based. As for the experimental part: as §2
Another data set relates to VISA. The class given is cell-based. Here is the method: as §2
In a further data set the test system is haemolysis. Kind of data set: Haemolysis assay (in vitro toxicity testing). To be noted: summary of Table 6. Type of data set: cell-based. As for the experimental part:
In addition, in vitro toxicity testing (haemolysis assays) indicates a lack of toxicity at levels well above MIC for some peptides, indicating potential for a wide therapeutic window (Table 6). […] Since increased net charge is known to be associated with higher levels of haemolysis, (Dhople and Nagaraj, Peptides 2005: 26: 217-225), this was not wholly unexpected.
Experiments were conducted to assess the percentage haemolysis against peptide concentration for peptides SEQ ID NOs: 4, 5, 6 and 7 against full length epidermicin (SEQ ID NO:10) and SEQ ID NO:12.

Read-outs that look alike come from different tables or passages of the source. No end group written: not given here.

The term MIC denotes the lowest concentration found to suppress growth. Lower therefore signals greater potency. For “KGQKYVSLAWKHKGTILKWINAGQSFEWIYKQIKKLWA [SEQ ID NO:14]”, the minimal inhibitory concentration (MIC) was determined as 6 µg/mL with S. Hominis, 4 µg/mL in [1], 8 µg/mL in the data set on S. saprophyticus and 8 µg/mL in the data set on S. aureus 1195.

As to “KHKGTILKWINAGQSFEWIYKQIKKLWA [SEQ ID NO:16]”, the MIC with MRSA [2] is 12 µg/mL; against S. Hominis, 4 µg/mL; against S. saprophyticus, 8 µg/mL; in the data set on S. aureus 1195 it was 8 µg/mL.

Consider KQIKKLWA [SEQ ID NO:19], for which the MIC in the data set on MRSA [2] is more than 64 µg/mL; with S. Hominis, more than 64 µg/mL; with S. saprophyticus, 16 µg/mL; in the data set with S. epidermidis, more than 64 µg/mL; against S. aureus 1195, 16 µg/mL.

KWINAGQSFEWIYKQIKKLWA [SEQ ID NO:18]: the MIC came out at 6 µg/mL against S. Hominis, 4 µg/mL in data set [1], 4 µg/mL in the data set with S. saprophyticus and 8 µg/mL against S. aureus 1195.

On to “MAAFMKLIQFLATKGQKYVSLAWKHKGTILKWINAGQ [SEQ ID NO:11]”, for which the MIC against S. Hominis was 12 µg/mL; in [1] it was 8 µg/mL; against S. saprophyticus, 8 µg/mL; with S. aureus 1195, 8 µg/mL.

Regarding “MAAFMKLIQFLATKGQKYVSLAWKHKGTILKWINAGQSFEWIYKQIKKLWA [SEQ ID NO:10, reference compound]”, the “MIC values against Gram-negative bacteria” value in the data set on Gram-negative bacteria was more than 64 µg/mL. Besides, the MIC against MRSA [2] was 0.03 µg/mL; in the data set with S. Hominis, 0.42 µg/mL; in the data set with S. saprophyticus it was 0.02 µg/mL; against S. aureus 1195, 0.16 µg/mL.

Consider “SFEWIKYQIKKLWA [SEQ ID NO:2, SFEWIKYQIKKLWA]”, for which the “antimicrobial activity against Gram positive and negative bacteria, in words” value (shortened to “antimicrobial activity”) in [3] is “significantly reduced activity”. For the same sequence, the MIC in the data set on P. aeruginosa is more than 64 µg/mL; with N. lactamica it was 37.3 µg/mL; against E. coli (E. coli 50, Table 2), 27 µg/mL; in the data set with E. coli (E. coli 178, Table 2), 27 µg/mL; against E. coli (E. coli DH5α, Table 2), 17 µg/mL; in the data set with E. coli (E.coli 177, Table 2), 19 µg/mL. The MIC in the data set on S aureus 1195 worked out at 9 µg/mL. Further, the “Average MIC” value with E. coli (E. coli 49) amounted to 24 µg/mL; with E. coli (E. coli 50), 27 µg/mL; with E. coli (E. coli 177) it was 19 µg/mL; in the data set on E. coli (E. coli 178) it was 27 µg/mL; in the data set on E. coli (E. coli 187), 17 µg/mL; in the data set with E. coli (E. coli DH5a) it was 17 µg/mL. In the data set on S aureus 1195, the “Average MIC” value was 9 µg/mL.

For “SFEWIYKQIFKLWA [SEQ ID NO:1, SFEWIYKQIFKLWA]”, the MIC is more than 64 µg/mL against MRSA [4]; more than 64 µg/mL in data set [5]; more than 64 µg/mL in the data set with P. aeruginosa; more than 64 µg/mL against N. lactamica; more than 64 µg/mL in the data set with E. coli (E. coli 50, Table 2); more than 64 µg/mL in the data set with E. coli (E. coli 178, Table 2). Moreover, the MIC was more than 64 µg/mL with E. coli (E. coli DH5α, Table 2); more than 64 µg/mL against E. coli (E.coli 177, Table 2); more than 64 µg/mL in the data set with S aureus 1195; more than 64 µg/mL against VISA. Further, in [3], the “antimicrobial activity” value is reported as “significantly reduced activity”. Besides, the “Average MIC” value (in data set [5]; in the data set on E. coli (E. coli 49); with E. coli (E. coli 50); in the data set on E. coli (E. coli 177); with E. coli (E. coli 178); with E. coli (E. coli 187)) was more than 64 µg/mL throughout. The “Average MIC” value in the data set on E. coli (E. coli DH5a) and in the data set with S aureus 1195 was more than 64 µg/mL in each case.

In the case of “SFEWIYKQIKKLWA [SEQ ID NO:12, SFEWIYKQIKKLWA]”, the “haemolytic activity / toxicity, in words” value in the data set on haemolysis is “higher levels of haemolytic activity”. Moreover, the MIC against MRSA [2] was 12 µg/mL; against S. Hominis it was 4 µg/mL; against S. saprophyticus, 4 µg/mL; against S. aureus 1195, 4 µg/mL; against P. aeruginosa it was 64 µg/mL; with N. lactamica, 10.6 µg/mL. The MIC was determined as 7 µg/mL in the data set on E. coli (E. coli 50, Table 2); 5 µg/mL in the data set on E. coli (E. coli 178, Table 2); 8 µg/mL in the data set with E. coli (E. coli DH5α, Table 2); 5 µg/mL in the data set on E. coli (E.coli 177, Table 2). Moreover, the “Average MIC” value in the data set with E. coli (E. coli 49) was 9 µg/mL; in the data set on E. coli (E. coli 50), 7 µg/mL; in the data set on E. coli (E. coli 177) it was 5 µg/mL; in the data set with E. coli (E. coli 178) it was 5 µg/mL; in the data set on E. coli (E. coli 187) it was 5 µg/mL; with E. coli (E. coli DH5a), 8 µg/mL. Also, the “Average MIC” value in the data set on S aureus 1195 was 4 µg/mL.

As to “SFEWIYKQIKKLWAK [SEQ ID NO:6, SFEWIYKQIKKLWAK]”, the “haemolytic activity / toxicity, in words” value in the data set on haemolysis is recorded as “higher levels of haemolytic activity”. Besides, the MIC in data set [5] came to 10.7 µg/mL; in the data set on P. aeruginosa it was 32 µg/mL; against N. lactamica, 21.3 µg/mL; with E. coli (E. coli 50, Table 2) it was 4 µg/mL; against E. coli (E. coli 178, Table 2), 8 µg/mL; in the data set with E. coli (E. coli DH5α, Table 2), 6.7 µg/mL. For the same sequence, the MIC is 4 µg/mL in the data set on E. coli (E.coli 177, Table 2); 3.3 µg/mL in the data set on S aureus 1195; more than 64 µg/mL in the data set with VISA.

Turning to “SFEWIYKQIWKLKRGLA [SEQ ID NO:3, SFEWIYKQIWKLKRGLA]”, the “antimicrobial activity” value in data set [3] (listed as 3) is “significantly reduced activity”; in [3] (listed as SEQ ID: No 3), “very low levels of activity”. Also, the “Average MIC” value in [5] is more than 64 µg/mL; with E. coli (E. coli 49), 19 µg/mL; with E. coli (E. coli 50) it was 11 µg/mL; in the data set on E. coli (E. coli 177), 5 µg/mL; in the data set with E. coli (E. coli 178), 21 µg/mL; in the data set with E. coli (E. coli 187), 11 µg/mL. For the same sequence, the figures for the “Average MIC” value with E. coli (E. coli DH5a) and in the data set with S aureus 1195 were 9 µg/mL and 13 µg/mL, respectively. The MIC in data set [5] was more than 64 µg/mL; with P. aeruginosa, more than 64 µg/mL; against N. lactamica it was more than 64 µg/mL; in the data set on E. coli (E. coli 50, Table 2) it was 11 µg/mL; against E. coli (E. coli 178, Table 2) it was 21 µg/mL; in the data set on E. coli (E. coli DH5α, Table 2) it was 9 µg/mL. Further, the MIC in the data set with E. coli (E.coli 177, Table 2) was found to be 5 µg/mL; in the data set with S aureus 1195, 13 µg/mL. Besides, in the data set on E. coli (summary of Table 2), the “activity against E coli strains tested, in words” value is reported as “good activity”.

“SFEWIYKQPKKLWA [SEQ ID NO:20, SFEWIYKQPKKLWA]”: the MIC against MRSA [4] is more than 64 µg/mL; in data set [5] it was more than 64 µg/mL; with P. aeruginosa, more than 64 µg/mL; with E. coli (E. coli 50, Table 2), more than 64 µg/mL; against E. coli (E. coli 178, Table 2), more than 64 µg/mL; in the data set with E. coli (E. coli DH5α, Table 2) it was more than 64 µg/mL. The MIC against E. coli (E.coli 177, Table 2) is more than 64 µg/mL; against S aureus 1195, more than 64 µg/mL; with VISA, more than 64 µg/mL.
